The record followed here is publication PMC12587552, “A nitrogen-containing diphyllin derivative C156-P1 exhibited broad-spectrum antiviral activity against Flaviviridae viruses by preventing endosomal acidification” (Antimicrobial Agents and Chemotherapy, 2025).

Series [1] deals with DENV-2. Briefly: microbe, parasite or virus in culture. As to conditions: Dengue virus.
Series [2] deals with HUVEC cells. As to conditions: human.
Series [3] deals with ZIKV. Briefly: microbe, parasite or virus in culture. It is filed as cell-based, ZIKV strain SZ01. The conditions noted are these: Zika virus, read-out: EC50 against ZIKV.
In series [4] the test system is DENV-2. The conditions noted are these: for SI (ratio of CC50 to EC50): DENV-2.
For series [5], the system named is endosomal acidification in A549 cells. The experiment in a line: Endosomal acidification, LysoSensor DND-189 flow cytometry. It is filed as cell-based, human. Background: Flow cytometry measures light scatter and fluorescence of single cells or particles in a stream.
In series [6] the test system is IFN-I response / TLR3. It is filed as cell-based, human. The conditions noted are these: A549 cells, DENV-2 MOI = 2, 50 nM, 12-48 hpi. Here is the method: Fig 6 C156-P1 restricted DENV-2 release from the endosome into the cytoplasm by suppressing the ATP6V0A2 protein. (A and C) A549 cells were infected with DENV-2 (MOI = 2) and treated with C156-P1 (50 nM), and the cells were harvested at 12, 24, 36, and 48 hpi. The mRNA levels of IFNB1, IFIT1, ISG15, OAS1, and TLR3 were quantitated by RT-qPCR. (B) A549 cells were infected with DENV-2 (MOI = 2) and incubated with C156-P1 (50 nM) for 24 h, after which the cell lysates were analyzed by Western blot (left panel), and band density analysis was performed (right panel). […] The intensity of FITC staining was determined using a CytoFLEX flow cytometer (left panel), and the mean fluorescence intensity (MFI) was calculated (right panel). […] The colocalization of E and Rab7A proteins was analyzed using Pearson’s correlation coefficients with the JACoP plugin for ImageJ software. […] (F) A549 cells were treated with DMSO, C156-P1 (100 nM), or PHY34 (100 nM) for 48 h, and ATP6V0A2 mRNA levels were quantified by RT-qPCR. […] The intensity of FITC staining was determined by a flow cytometer (left panel), and the MFI was calculated (right panel). […] The DENV-2 NS3 protein was determined by Western blot. […] The levels of ATP6V0A2 mRNA, intracellular viral RNA, DENV-2 NS3 protein, and extracellular virus titer were assessed at 48 hpi. […]

Series [7] relates to YFV. Briefly: microbe, parasite or virus in culture. Type of series: cell-based, YFV vaccine strain 17D. The conditions noted are these: Yellow fever virus, read-out: EC50 against YFV.
Series [8] concerns SeV. It is filed as cell-based, Sendai virus.
For series [9], the system named is ATP6V0A2. Briefly: ATP6V0A2 mRNA level by RT-qPCR. Type of series: cell-based, human.
Series [10] relates to ZIKV, JEV, and YFV. The experiment in a line: organism not typed. Type of series: cell-based. As to conditions: read-out: EC50 against ZIKV, JEV, and YFV, bound stated.

pEC50: −log10 of the molar value. Where two headings read alike, the source gives them in different places.

What is called pEC50 is the negative decadic logarithm of the EC50, by convention in mol/L.

As for `COc1cc2c(OCC#N)c3c(c(-c4ccc5c(c4)OCO5)c2cc1OC)C(=O)OC3` [Compound C156-P1], the pEC50 in [1] (DENV2, A549, 48 h, read-out: EC50 against DENV-2) was 8.87; in [1] (DENV2, HUVEC, 48 h, read-out: EC50 against DENV-2), 8.89; in [1] (DENV2, Huh-7, 48 h, read-out: EC50 against DENV-2) it was 8.35; in series [1] (DENV2, Vero, 48 h, read-out: EC50 against DENV-2), 8.42; in series [1] (DENV2, read-out: EC50 against DENV-2, bound stated in text) it was greater than 8.30; in [3] (A549, 48 h), 9.00. Further, the negative-log EC50 (pEC50) in series [3] (Vero, 48 h) is 9.12; in series [7] (A549, 48 h), 8.26; in series [7] (Vero, 48 h), 8.40; in series [10], greater than 8.22. Also, the “Concentration tolerable for cytotoxicity” value in [2] is less than 62.5 nM. Moreover, the “SI (ratio of CC50 to EC50)” value worked out at 292.65 in series [4] (A549 cells), 142.42 in series [4] (HUVEC cells), 110.09 in series [4] (Huh7 cells) and 113.94 in [4] (Vero cells). Further, the “Extracellular DENV-2 viral titers versus DMSO” value in series [4] (A549 cells, MOI = 2, 50 nM, 24, 36, and 48 hpi, focus-forming assay) was “significantly decreased”. For the same molecule, the “DENV-2 infection (NS3 protein, Western blot)” value in series [4] (A549 cells, MOI = 2, 48 h, indicated concentrations) was “decreased with increasing concentrations of C156-P1”. The “Endosomal acidification (FITC intensity of LysoSensor DND-189)” value in [5] was “significantly decreased the MFI of FITC in a dose-dependent manner”. For the same molecule, in [6], the “TLR3 mRNA expression induced by DENV-2” value was “significantly reduced the expression of TLR3 mRNA”. Moreover, the “mRNA levels of IFNB1 and ISGs (IFIT1, ISG15, OAS1) induced by DENV-2” value in series [6] is listed as “apparently suppressed”. The “Inhibition of SeV infection (viral NP mRNA)” value in series [8] was “did not inhibit SeV infection”. The “ATP6V0A2 mRNA expression” value in [9] is reported as “decrease in ATP6V0A2 mRNA expression”.
